Experimental data taken from patent US20250230193A1, “CYCLIC COMPOUND HAVING SELECTIVE KRAS INHIBITORY EFFECT ON HRAS AND NRAS” (CHUGAI SEIYAKU KABUSHIKI KAISHA, priority 2022, published 2025).

How the values were obtained:
[1] = molecular target: GDP-bound NRAS wild-type protein (Homo sapiens, UniProt P01111); test: Binding to NRAS by surface plasmon resonance (SPR), Single Cycle Kinetics; settings: KD ratio NRAS/KRAS, SPR
[2] = molecular target: GDP-bound HRAS wild-type protein (Homo sapiens, UniProt P01112); test: Binding to HRAS by surface plasmon resonance (SPR), Single Cycle Kinetics; settings: KD ratio HRAS/KRAS, SPR
GDP-bound HRAS wild-type protein, sequence (P01112 whole entry): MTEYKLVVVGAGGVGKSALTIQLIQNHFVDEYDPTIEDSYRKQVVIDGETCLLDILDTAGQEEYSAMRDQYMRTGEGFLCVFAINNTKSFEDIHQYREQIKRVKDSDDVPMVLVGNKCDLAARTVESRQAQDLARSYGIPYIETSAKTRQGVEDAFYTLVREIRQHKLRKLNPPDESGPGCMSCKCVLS

GDP-bound NRAS wild-type protein, sequence (P01111 whole entry): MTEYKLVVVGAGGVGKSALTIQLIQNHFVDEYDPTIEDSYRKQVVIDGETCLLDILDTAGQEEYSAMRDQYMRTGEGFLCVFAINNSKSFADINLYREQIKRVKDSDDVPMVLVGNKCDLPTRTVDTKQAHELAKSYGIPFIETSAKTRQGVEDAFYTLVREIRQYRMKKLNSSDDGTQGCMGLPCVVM

Row | Compound | NRAS/KRAS (ratio of KD value with respect to GDP-bound NRAS wild-type protein to KD value with respect to KRAS) [1] | HRAS/KRAS (ratio of KD value with respect to GDP-bound HRAS wild-type protein to KD value with respect to KRAS) [2]
1 | CCC[C@H]1C(=O)N[C@@H]([C@@H](C)CC)C(=O)N(C)CC(=O)N(C)[C@H]2CCCCN(C2=O)[C@@H](Cc2ccc(C(F)(F)F)cc2)C(=O)N(C)CC(=O)N[C@@H](CCc2cc(F)c(C(F)(F)F)c(F)c2)C(=O)N2C[C@H](OCC)C[C@H]2C(=O)NC2(CCC2)C(=O)N(C)[C@@H](C2CCCC2)C(=O)N(C)[C@H](C(=O)N(C)C)CC(=O)N1C [PP0694] | C (A compound having a KD ratio of 0.1 or more and less than 3 is denoted as C) | C (A compound having a KD ratio of 0.1 or more and less than 3 is denoted as C)
2 | C=CC[C@H]1C(=O)N[C@@H]([C@@H](C)CC)C(=O)N(C)CC(=O)N(C)[C@H]2CCCCN(C2=O)[C@@H](Cc2ccc(C(F)(F)F)cc2)C(=O)N(C)CC(=O)N[C@@H](CCc2cc(F)c(C(F)(F)F)c(F)c2)C(=O)N2C[C@H](OCC)C[C@H]2C(=O)NC2(CCC2)C(=O)N(C)[C@@H](C2CCCC2)C(=O)N(C)[C@H](C(=O)N(C)C)CC(=O)N1C [PP0695] | C (A compound having a KD ratio of 0.1 or more and less than 3 is denoted as C) | C (A compound having a KD ratio of 0.1 or more and less than 3 is denoted as C)
3 | C#CC[C@H]1C(=O)N[C@@H]([C@@H](C)CC)C(=O)N(C)CC(=O)N(C)[C@H]2CCCCN(C2=O)[C@@H](Cc2ccc(C(F)(F)F)cc2)C(=O)N(C)CC(=O)N[C@@H](CCc2cc(F)c(C(F)(F)F)c(F)c2)C(=O)N2C[C@H](OCC)C[C@H]2C(=O)NC2(CCC2)C(=O)N(C)[C@@H](C2CCCC2)C(=O)N(C)[C@H](C(=O)N(C)C)CC(=O)N1C [PP0696] | B (a compound having 3 or more and less than 10 is denoted as B) | B (a compound having 3 or more and less than 10 is denoted as B)
4 | CCO[C@@H]1C[C@H]2C(=O)NC3(CCC3)C(=O)N(C)[C@@H](C3CCCC3)C(=O)N(C)[C@H](C(=O)N(C)C)CC(=O)N(C)[C@@H](CC3CC3)C(=O)N[C@@H]([C@@H](C)CC)C(=O)N(C)CC(=O)N(C)[C@H]3CCCCN(C3=O)[C@@H](Cc3ccc(C(F)(F)F)cc3)C(=O)N(C)CC(=O)N[C@@H](CCc3cc(F)c(C(F)(F)F)c(F)c3)C(=O)N2C1 [PP0697] | C (A compound having a KD ratio of 0.1 or more and less than 3 is denoted as C) | C (A compound having a KD ratio of 0.1 or more and less than 3 is denoted as C)
5 | CCO[C@@H]1C[C@H]2C(=O)NC3(CCC3)C(=O)N(C)[C@@H](C3CCCC3)C(=O)N(C)[C@H](C(=O)N(C)C)CC(=O)N(C)[C@@H](CC3CCC3)C(=O)N[C@@H]([C@@H](C)CC)C(=O)N(C)CC(=O)N(C)[C@H]3CCCCN(C3=O)[C@@H](Cc3ccc(C(F)(F)F)cc3)C(=O)N(C)CC(=O)N[C@@H](CCc3cc(F)c(C(F)(F)F)c(F)c3)C(=O)N2C1 [PP0698] | C (A compound having a KD ratio of 0.1 or more and less than 3 is denoted as C) | C (A compound having a KD ratio of 0.1 or more and less than 3 is denoted as C)
6 | CCO[C@@H]1C[C@H]2C(=O)NC3(CCC3)C(=O)N(C)[C@@H](C3CCCC3)C(=O)N(C)[C@H](C(=O)N(C)C)CC(=O)N(C)[C@@H](CC(C)(C)C)C(=O)N[C@@H]([C@@H](C)CC)C(=O)N(C)CC(=O)N(C)[C@H]3CCCCN(C3=O)[C@@H](Cc3ccc(C(F)(F)F)cc3)C(=O)N(C)CC(=O)N[C@@H](CCc3cc(F)c(C(F)(F)F)c(F)c3)C(=O)N2C1 [PP0699] | C (A compound having a KD ratio of 0.1 or more and less than 3 is denoted as C) | C (A compound having a KD ratio of 0.1 or more and less than 3 is denoted as C)
7 | CCO[C@@H]1C[C@H]2C(=O)NC3(CCC3)C(=O)N(C)[C@@H](C3CCCC3)C(=O)N(C)[C@H](C(=O)N(C)C)CC(=O)N(C)[C@@H](CC3CCCC3)C(=O)N[C@@H]([C@@H](C)CC)C(=O)N(C)CC(=O)N(C)[C@H]3CCCCN(C3=O)[C@@H](Cc3ccc(C(F)(F)F)cc3)C(=O)N(C)CC(=O)N[C@@H](CCc3cc(F)c(C(F)(F)F)c(F)c3)C(=O)N2C1 [PP0700] | C (A compound having a KD ratio of 0.1 or more and less than 3 is denoted as C) | B (a compound having 3 or more and less than 10 is denoted as B)
8 | CCO[C@@H]1C[C@H]2C(=O)NC3(CCC3)C(=O)N(C)[C@@H](C3CCCC3)C(=O)N(C)[C@H](C(=O)N(C)C)CC(=O)N(C)[C@@H](CC3CCCCC3)C(=O)N[C@@H]([C@@H](C)CC)C(=O)N(C)CC(=O)N(C)[C@H]3CCCCN(C3=O)[C@@H](Cc3ccc(C(F)(F)F)cc3)C(=O)N(C)CC(=O)N[C@@H](CCc3cc(F)c(C(F)(F)F)c(F)c3)C(=O)N2C1 [PP0701] | C (A compound having a KD ratio of 0.1 or more and less than 3 is denoted as C) | B (a compound having 3 or more and less than 10 is denoted as B)
9 | CCO[C@@H]1C[C@H]2C(=O)NC3(CCC3)C(=O)N(C)[C@@H](C3CCCC3)C(=O)N(C)[C@H](C(=O)N(C)C)CC(=O)N(C)[C@@H](Cc3cccnc3)C(=O)N[C@@H]([C@@H](C)CC)C(=O)N(C)CC(=O)N(C)[C@H]3CCCCN(C3=O)[C@@H](Cc3ccc(C(F)(F)F)cc3)C(=O)N(C)CC(=O)N[C@@H](CCc3cc(F)c(C(F)(F)F)c(F)c3)C(=O)N2C1 [PP0703] | C (A compound having a KD ratio of 0.1 or more and less than 3 is denoted as C) | B (a compound having 3 or more and less than 10 is denoted as B)
10 | CCO[C@@H]1C[C@H]2C(=O)NC3(CCC3)C(=O)N(C)[C@@H](C3CCCC3)C(=O)N(C)[C@H](C(=O)N(C)C)CC(=O)N(C)[C@@H](COC)C(=O)N[C@@H]([C@@H](C)CC)C(=O)N(C)CC(=O)N(C)[C@H]3CCCCN(C3=O)[C@@H](Cc3ccc(C(F)(F)F)cc3)C(=O)N(C)CC(=O)N[C@@H](CCc3cc(F)c(C(F)(F)F)c(F)c3)C(=O)N2C1 [PP0704] | C (A compound having a KD ratio of 0.1 or more and less than 3 is denoted as C) | C (A compound having a KD ratio of 0.1 or more and less than 3 is denoted as C)
11 | CCO[C@@H]1C[C@H]2C(=O)NC3(CCC3)C(=O)N(C)[C@@H](C3CCCC3)C(=O)N(C)[C@H](C(=O)N(C)C)CC(=O)N(C)[C@@H](CCOC)C(=O)N[C@@H]([C@@H](C)CC)C(=O)N(C)CC(=O)N(C)[C@H]3CCCCN(C3=O)[C@@H](Cc3ccc(C(F)(F)F)cc3)C(=O)N(C)CC(=O)N[C@@H](CCc3cc(F)c(C(F)(F)F)c(F)c3)C(=O)N2C1 [PP0705] | C (A compound having a KD ratio of 0.1 or more and less than 3 is denoted as C) | C (A compound having a KD ratio of 0.1 or more and less than 3 is denoted as C)
